Data as given in patent US9884823B2, “Oxime ether acetate compound, preparation method therefor and weeding application thereof” (ZHEJIANG UNIVERSITY OF TECHNOLOGY, priority 2014, dated 2018).
Read-outs that look alike come from different tables or passages of the source.

Legend:
[1] = test system: grass weeds such as crabgrass, barnyard grass, dog point; conditions: 150 g a.i./ha; for activity for grass targets such as crabgrass and dog point: 30 days after administration, Table 9 summary; for activity on grass weeds such as crabgrass, dog point: postemergence spraying, 30 days
From the text: (§1) The raw drug which was selected from the compounds in table 1 was weighed using an analytical balance (0.0001 g), and dissolved in DMF containing 1 wt % Tween-80 emulsifier to prepare a mother liquor of raw drug with a mass concentration of 1.0˜5.0%, and then diluted with distilled water, to prepare preparations at desired concentrations according to the ratio of ingredients in Examples 8, 9 and 10.
(§2) The test targets were mustard, small quinoa, Abutilon, amaranthus retroflexus, Eclipta prostrata, crabgrass, dog point. A pot with a diameter of 7.5 cm was used, filled with composite soil (garden soil:nursery matrix, 1:2, v/v) to ¾ of the pot, then the above […] kinds of weeds targets were directly seeded (germination rate ≧85%), covered with soil at a thickness of 0.2 cm. When the weeds grew to 3-leaf stage, pre-emergence soil treatment for weeds planting, and then spraying was performed.

Small quinoa = conditions: 150 g a.i./ha, 30 days, Table 9
From the text: as §1, §2

[2] = test system: broadleaf weeds such as mustard, small quinoa, Abutilon, Amaranthus retroflexus and Eclipta prostrate; conditions: 150 g a.i./ha; for herbicidal activity on broadleaf weeds targets: 30 days after administration, Table 9 summary; for activity on the growth of broadleaf weeds: postemergence spraying, 30 days, vs clear water control
From the text: as §1, §2

Rape = assay: Culture dish method (general screening); assay type: in vivo; conditions: 100 mg/L, 7 days
From the text: (§3) Culture dish method (general screening): The test targets were radish, cucumber, rape, wheat, sorghum and barnyard grass; the seeds of wheat, sorghum and radish were germinated in advance, and the uniform emerge-germinating seeds were used in the test.

Dog point = assay: Potted plants live body test; assay type: in vivo; conditions: 150 g a.i./ha
From the text: as §1, §2

Eclipta prostrata = assay: Potted plants live body test; assay type: in vivo; conditions: 150 g a.i./ha; for efficiency, Eclipta prostrata: 30 days, Table 9
From the text: as §1, §2

Crabgrass = assay: Potted plants live body test; assay type: in vivo; conditions: 150 g a.i./ha
From the text: as §1, §2

amaranthus retroflexus = assay: Potted plants live body test; assay type: in vivo; conditions: 150 g a.i./ha
From the text: as §1, §2

Abutilon = assay: Potted plants live body test; assay type: in vivo; conditions: 150 g a.i./ha
From the text: as §1, §2

Chinese sorghum = assay: Culture dish method (general screening); assay type: in vivo; conditions: 100 mg/L, 7 days
From the text: as §3

Wheat = assay: Culture dish method (general screening); assay type: in vivo; conditions: 100 mg/L, 7 days
From the text: as §3

Radish = assay: Culture dish method (general screening); assay type: in vivo; conditions: 100 mg/L, 7 days
From the text: as §3

Barnyardgrass [3] = assay: Culture dish method (general screening); assay type: in vivo, barnyard grass; conditions: 100 mg/L, 7 days
From the text: as §3

Mustard = conditions: 150 g a.i./ha, 30 days, Table 9
Cucumber = assay: Culture dish method (general screening); assay type: in vivo; conditions: 100 mg/L, 7 days
From the text: as §3

Barnyardgrass [4] = assay: Potted plants live body test; assay type: in vivo, barnyard grass; conditions: postemergence spraying; 150 g a.i./ha; Table 10
[5] = Postemergence spraying, 30 days, Table 9
[6] = Pre-emergence soil treatment, 30 days, Table 9
[7] = postemergence spraying, Table 10

Compound	activity for grass targets such as crabgrass and dog point [1]	activity on grass weeds such as crabgrass, dog point [1]	efficiency, Small quinoa (Small quinoa; Postemergence spraying) [%]	efficiency, Small quinoa (Small quinoa; Pre-emergence soil treatment) [%]	herbicidal activity on broadleaf weeds targets [2]	activity on the growth of broadleaf weeds [2]	inhibition rate, Rape Root (Rape) [%]	inhibition rate, Rape Stem (Rape) [%]	efficiency, Dog point (Dog point; [5]) [%]	efficiency, Dog point (Dog point; [6]) [%]	inhibition rate, Chinese sorghum Root (Chinese sorghum) [%]	inhibition rate, Chinese sorghum Stem (Chinese sorghum) [%]	inhibition rate, Wheat Root (Wheat) [%]	inhibition rate, Wheat Stem (Wheat) [%]	inhibition rate, Radish Root (Radish) [%]	inhibition rate, Radish Stem (Radish) [%]	inhibition rate, Barnyardgrass Root (Barnyardgrass [3]) [%]	inhibition rate, Barnyardgrass Stem (Barnyardgrass [3]) [%]	inhibition rate, Cucumber Root (Cucumber) [%]	inhibition rate, Cucumber Stem (Cucumber) [%]	further results
CON=C(C(=O)OC)c1ccccc1COc1cccc(-c2cccc(C)n2)c1 [Compound 85]	poor activity	almost have no activity	0	0	herbicidal activity	inhibitory activity	80	50	0	0	80	30	60	20	50	50	80	0	80	30	efficiency, Eclipta prostrata (Eclipta prostrata; Postemergence spraying): 50%; efficiency, Eclipta prostrata (Eclipta prostrata; Pre-emergence soil treatment): 0%; efficiency, Crabgrass (Crabgrass; [5]): 0%; efficiency, Crabgrass (Crabgrass; [6]): 0%; efficiency, amaranthus retroflexus (amaranthus retroflexus; [5]): 0%; efficiency, amaranthus retroflexus (amaranthus retroflexus; [6]): 0%; efficiency, Abutilon (Abutilon; [5]): 50%; efficiency, Abutilon (Abutilon; [6]): 20%; efficiency, Mustard (Mustard; Postemergence spraying): 30%; efficiency, Mustard (Mustard; Pre-emergence soil treatment): 20%
CON=C(C(=O)OC)c1ccccc1COc1cccc(-c2ncc(Cl)cc2Cl)c1 [Compound 98]	poor activity	almost have no activity	75	45	herbicidal activity	inhibitory activity	50	80	0	0	50	30	20	0	50	80	60	20	50	80	efficiency, Eclipta prostrata (Eclipta prostrata; Postemergence spraying): 80%; efficiency, Eclipta prostrata (Eclipta prostrata; Pre-emergence soil treatment): 50%; efficiency, Crabgrass (Crabgrass; [5]): 0%; efficiency, Crabgrass (Crabgrass; [6]): 0%; efficiency, amaranthus retroflexus (amaranthus retroflexus; [5]): 80%; efficiency, amaranthus retroflexus (amaranthus retroflexus; [6]): 50%; efficiency, Abutilon (Abutilon; [5]): 80%; efficiency, Abutilon (Abutilon; [6]): 60%; efficiency, Mustard (Mustard; Postemergence spraying): 100%; efficiency, Mustard (Mustard; Pre-emergence soil treatment): 50%
CON=C(C(=O)OC)c1ccccc1COc1cccc(-c2nc(Cl)c(Cl)cc2Cl)c1 [Compound 99]	poor activity	almost have no activity	50	30	herbicidal activity	inhibitory activity	60	30	0	0	50	50	30	0	60	50	50	0	70	0	efficiency, Eclipta prostrata (Eclipta prostrata; Postemergence spraying): 25%; efficiency, Eclipta prostrata (Eclipta prostrata; Pre-emergence soil treatment): 0%; efficiency, Crabgrass (Crabgrass; [5]): 0%; efficiency, Crabgrass (Crabgrass; [6]): 0%; efficiency, amaranthus retroflexus (amaranthus retroflexus; [5]): 40%; efficiency, amaranthus retroflexus (amaranthus retroflexus; [6]): 0%; efficiency, Abutilon (Abutilon; [5]): 20%; efficiency, Abutilon (Abutilon; [6]): 0%; efficiency, Mustard (Mustard; Postemergence spraying): 60%; efficiency, Mustard (Mustard; Pre-emergence soil treatment): 0%
CON=C(C(=O)OC)c1ccccc1COc1cc(-c2ccccn2)ccc1C(F)(F)F [Compound 112]	poor activity	almost have no activity	75	45	herbicidal activity	inhibitory activity	50	80	0	0	0	0	0	0	50	80	0	0	50	80	efficiency, Eclipta prostrata (Eclipta prostrata; Postemergence spraying): 60%; efficiency, Eclipta prostrata (Eclipta prostrata; Pre-emergence soil treatment): 0%; efficiency, Crabgrass (Crabgrass; [5]): 0%; efficiency, Crabgrass (Crabgrass; [6]): 0%; efficiency, amaranthus retroflexus (amaranthus retroflexus; [5]): 80%; efficiency, amaranthus retroflexus (amaranthus retroflexus; [6]): 50%; efficiency, Abutilon (Abutilon; [5]): 50%; efficiency, Abutilon (Abutilon; [6]): 0%; efficiency, Mustard (Mustard; Postemergence spraying): 100%; efficiency, Mustard (Mustard; Pre-emergence soil treatment): 50%
CON=C(C(=O)OC)c1ccccc1COc1ccc(-c2cccc(C)n2)cc1 [Compound 120]	poor activity	almost have no activity	60	50	herbicidal activity	inhibitory activity	60	0	0	0	50	30	20	0	50	0	60	20	70	30	efficiency, Eclipta prostrata (Eclipta prostrata; Postemergence spraying): 30%; efficiency, Eclipta prostrata (Eclipta prostrata; Pre-emergence soil treatment): 0%; efficiency, Crabgrass (Crabgrass; [5]): 0%; efficiency, Crabgrass (Crabgrass; [6]): 0%; efficiency, amaranthus retroflexus (amaranthus retroflexus; [5]): 20%; efficiency, amaranthus retroflexus (amaranthus retroflexus; [6]): 0%; efficiency, Abutilon (Abutilon; [5]): 50%; efficiency, Abutilon (Abutilon; [6]): 0%; efficiency, Mustard (Mustard; Postemergence spraying): 40%; efficiency, Mustard (Mustard; Pre-emergence soil treatment): 20%
COc1cc(OC)nc(Oc2ccccc2CNc2ccc(C(=O)OC(C)C)cc2)n1 [Pyribambenz isopropyl, reference compound]	–	–	–	–	–	–	100	100	–	–	100	90	95	95	100	90	100	95	95	90	efficiency, Dog point (Dog point; [7]): 80%; efficiency, Eclipta prostrate (Eclipta prostrata; [7]): 0%; efficiency, Crabgrass (Crabgrass; [7]): 50%; efficiency, amaranthus retroflexus (amaranthus retroflexus; [7]): 70%; efficiency, Abutilon (Abutilon; [7]): 0%; efficiency, Barnyardgrass (Barnyardgrass [4]): 50%
